# Key:
# Format in all cases: cell-based
# [1] = system: human ventricular slices (α1-adrenergic receptor stimulation); assay: Chronic drug model: acute versus chronic phenylephrine in cultured human ventricular slices, optical mapping; conditions: for effect on AP duration (APD): 1 Hz (60 BPM) pacing
# Description: Non-failing donor hearts that were rejected for transplantation were cardioplegically arrested and cooled in the operating room following the same procedure accepted for heart transplantation. Cardiac tissue that was promptly delivered to the research laboratory, where it was sliced tangential to the endocardium using a high precision (1 μm) vibrating microtome, transferred to a custom-designed incubation apparatus, and cultured at a liquid-air interface in 6-well culture plates using Transwell inserts. Slices were cultured in M-199 supplemented with 1×ITS (Insulin, Transferrin, Selenium), 10 mM 2,3-butanedione monoxime, and 2% penicillin-streptomycin in a 37° C. incubator with humidified air with 5% CO2. Culture medium was changed daily. Vital tissue slices from adult myocardium prepared in this manner have previously been cultured for up to 28 days with high cellular viability and maintenance of expression of the major ion channels and action potential characteristics.
# Slices were cultured in medium 199 supplemented with 2% penicillin-streptomycin, 1×ITS (Insulin, Transferrin, Selenium) liquid media supplement, and 10 mM 2,3-butanedione monoxime. Slices were individually washed in sterile PBS solution 6 times before placing in culture. Sterile forceps were used to handle slices at all time. […]
# After a 24 hour culture period, slices' electrophysiology was measured with optical mapping to examine potential functional changes occurred during culture. […]
# Utilizing cultured slices and adult dosage of phenylephrine, a widely used selective α1-adrenergic receptor agonist, a model to study chronic drug effects in human cardiac slices was developed. Slice electrophysiology was first acutely measured using optical mapping after application of 3 μM phenylephrine. […]
# Slices were cultured in a tissue incubator for 24 hours. Control cultured slices were measured before and after phenylephrine application similar to acute slices, slices cultured in drug media were measured separately. […] Only transverse conduction velocity could be measured accurately due to the small size of the tissue.
# (§1) Activation map was plotted via calculating activation time points at 50% of action potential upstroke amplitude. Action potential and calcium transient duration was calculated at 80% repolarization/relaxation. When slices were field-paced, conduction velocity could not be quantified via traditional longitudinal and transverse direction. During point pacing conduction velocity was calculated using a semi-automated Matlab function ORCA. Effective refractory period was measured using S1-S1 pacing protocol until 1:1 capture was lost. Action potential and calcium transient were recorded at cycle lengths from 2000 ms to 200 ms.
# [2] = system: Donor left ventricular slices; assay: Optical mapping of acute drug response in donor human left ventricular slices; conditions: donor left ventricular slices paced at 1 Hz; β-adrenergic stimulation with isoproterenol (100 nM); ±S.D.; baseline 0.67±0.03
# Description: After arrival, an approximately one-inch cube of left ventricular tissue or right atrial tissue was cut in cardioplegic solution. Left ventricular tissue was taken from a region close to left anterior descending artery and circumflex artery. Atrial tissue was taken from crista terminalis below sinoatrial node region. Premade 4% agarose gel cooled at 4° C. was glued on to the tissue holder of a high precision vibrating microtome (7000 smz-2, Campden Instruments Ltd. UK). The tissue block was then mounted endocardium up on the agarose. […] Slices were cut tangential to the endocardium. […]
# (§2) Ventricular slices were electrophysiologically studied with optical mapping technique. […] Transmembrane potential (Vm) was measured using di4-ANEEPS and RH237 (Life Technologies). Intracellular calcium was measured using Rhod-2AM (Life Technologies). […]
# as §1, with “Action potential and calcium transient were recorded at cycle lengths from 2000 ms to 200 ms.” left out
# [3] = system: failing slices (left ventricular free wall of failing hearts); assay: Optical mapping of acute drug response in failing human heart slices; conditions: isoproterenol, baseline 0.47±0.008
# Description: Adult human hearts were procured either as failing human hearts from Barnes-Jewish Hospital or donor human hearts from Mid-America transplant services. Explanted hearts were cardioplegically arrested via high potassium solution (in mmol/L: NaCl 110, CaCl2 1.2, KCl 16, MgCl2 16, NaHCO3 10) and were cooled to approximately 4° C. in the operating room following aortic cross-clamp. Failing hearts were perfused through both coronaries, while donor hearts were perfused systemically prior to removal from body. The heart was maintained at this low temperature to preserve tissue during the 15-20 minute transportation time from the operating room to the research laboratory.
# as §2
# as §1, with “Effective refractory period was measured using S1-S1 pacing protocol until 1:1 capture was lost. Action potential and calcium transient were recorded at cycle lengths from 2000 ms to 200 ms.” left out
Structure (SMILES),"effect on AP restitution curve ([1]; acute (15 minutes) 3 μM, at baseline as well as after one day in culture)",effect on AP duration (APD) ([1]; acute treatment at baseline and after one day in culture),effect on AP restitution curve ([1]; chronic (24 hours) 3 μM),effect on AP duration (APD) ([1]; chronic treatment (24 hours)),conduction velocity (CV) [2] [m/s],conduction velocity (CV) [3] [m/s]
CNC[C@H](O)c1cccc(O)c1 [phenylephrine],shifted the AP restitution curve upwards significantly,APD lengthening,shifted the AP restitution curve downwards,APD shortening,,
CC(C)NCC(O)c1ccc(O)c(O)c1 (stereo not drawn) [isoproterenol],,,,,0.84±0.03,0.54±0.006
